Experimental data reported in patent publication US20070249637A1, “Inhibitors Of Hepatitis C Virus Protease, And Compositions And Treatments Using The Same” (priority 2004, published 2007).
“And” between values parts separate entries of the source, which are not always exact repeats. Equal entries are not always repeated.

Columns and labels:
[1] = target: T1, full-length NS3-NS4A enzyme (Hepatitis C virus genotype 1a, UniProt P27958); test: HCV protease assay (continuous FRET, full-length enzyme); assay type: biochemical; conditions: 3 nM full-length NS3-NS4A, 3 uM depsipeptide FRET substrate S1; competitive inhibition fit
T1 construct: 3 nM full-length NS3-NS4A enzyme
Protocol: HCV protease activity and compound inhibition was monitored using a continuous, fluorescence resonance energy transfer (FRET) assay. Test compounds at various concentrations were added to assay buffer (50 mM MOPS pH 7.5, 50 mM NaCl, 20% glycerol, 0.025% Triton-X 100, 1 mM tris(2-carboxyethyl)phosphine) containing 3 uM depsipeptide FRET substrate S1 (Anaspec) (see Taliani et al. Analytical Biochemistry, 240, 60-67 (1996)) in a white, non-binding 96-well plate (Corning). The reaction was started by the addition of 3 nM full-length NS3-NS4A enzyme. The increase in fluorescence intensity following peptide cleavage was monitored using a Safire fluorescence plate reader (Tecan). The excitation and emission wavelengths were 340 nm and 500 nm, respectively. Inhibition constants (KI) were calculated by non-linear regression analysis using an equation derived for competitive inhibition.

[2] = test system: HCV dual reporter subgenomic replicon (B6b cell line); test: HCV dual reporter subgenomic replicon assay, Renilla luciferase (antiviral activity); assay type: cell-based; conditions: Hepatitis C virus, 72 h; 50% reduction of Renilla luciferase expression, 3 days incubation
Protocol: The compounds described herein were tested for antiviral activity utilizing a dual-reporter replicon assay as described in U.S. patent application Ser. No. 10/818,075 (the '075 application), filed Apr. 5, 2004. The disclosure of the '075 application is incorporated herein.
(§1) Cell-based antiviral activity was evaluated in the previously described HCV dual reporter subgenomic replicon system (the '075 application). With this system, the effects of a compound on both HCV replication and cell viability can be simultaneously determined by measuring the intracellular levels of two separate reporter proteins. The dicistronic selectable replicon contains the Renilla luciferase gene such that Renilla luciferase activity within stably-transfected cells serves as a marker of HCV replication. The firefly luciferase gene is stably integrated into and expressed by the Huh-7 host cells. Since firefly luciferase activity is dependent upon cellular transcription and translation, firefly luciferase activity serves as an indicator of cell viability.
(§2) The dual reporter selectable replicon cell line (B6b) was maintained in DMEM supplemented with 10% FBS, L-glutamine, non-essential amino acids, penicillin, streptomycin, and selection agents (200 ug/ml G418 and 6 ug/ml blastocidin). On the first day of the experiment, cells were trypsinized, washed, and diluted in medium lacking the selection agents. Cells were transferred to 96-well, black-walled, clear bottom plates at a density of 2×10^4 cells in 150 ul of medium per well. Cells were allowed to settle for 60 to 90 minutes while compounds were being prepared. Each compound was initially diluted to a 4× working stock (2.56% DMSO in tissue culture medium) that was then serially diluted nine times in half log increments in medium with 2.56% DMSO. Fifty microliters of each dilution were then added in triplicate to the plated cells in order to obtain final IX compound concentrations with 0.64% DMSO. Typical testing concentrations ranged from 320 uM to 10 nM. Control wells containing 0.64% DMSO without compound were also included on each plate.
(§3) After 3 days of incubation under humidity at 37° C. with 5% CO2, plates were microscopically examined for compound precipitation and cell death. Tissue culture medium was then aspirated and cells were lysed with 20 ul of 1× Passive Lysis Buffer (Promega, Madison, Wis.). Reporter activity was measured using a MicroBeta Jet 1450 (Perkin Elmer, Boston, Mass.) following sequential 50 ul additions of firefly and Renilla luciferase substrates as described in the manufacturers protocol (Promega). Luciferase activities were expressed as a percentage of the signals observed in the compound-free control wells. The amount of compound required to reduce Renilla luciferase expression by 50% is defined as the 50% effective concentration, or EC50. The amount of compound that reduces firefly luciferase expression by 50% is defined as the 50% cytotoxic concentration, or CC50. A therapeutic index (TI) is calculated by dividing the CC50 by the EC50.

[3] = in vitro; assay type: cell-based; conditions: human; 50% reduction of firefly luciferase expression, 3 days incubation; read-out: Replicon CC50
Protocol: as §1, §2, §3

T1 sequence (P27958 1027-1657): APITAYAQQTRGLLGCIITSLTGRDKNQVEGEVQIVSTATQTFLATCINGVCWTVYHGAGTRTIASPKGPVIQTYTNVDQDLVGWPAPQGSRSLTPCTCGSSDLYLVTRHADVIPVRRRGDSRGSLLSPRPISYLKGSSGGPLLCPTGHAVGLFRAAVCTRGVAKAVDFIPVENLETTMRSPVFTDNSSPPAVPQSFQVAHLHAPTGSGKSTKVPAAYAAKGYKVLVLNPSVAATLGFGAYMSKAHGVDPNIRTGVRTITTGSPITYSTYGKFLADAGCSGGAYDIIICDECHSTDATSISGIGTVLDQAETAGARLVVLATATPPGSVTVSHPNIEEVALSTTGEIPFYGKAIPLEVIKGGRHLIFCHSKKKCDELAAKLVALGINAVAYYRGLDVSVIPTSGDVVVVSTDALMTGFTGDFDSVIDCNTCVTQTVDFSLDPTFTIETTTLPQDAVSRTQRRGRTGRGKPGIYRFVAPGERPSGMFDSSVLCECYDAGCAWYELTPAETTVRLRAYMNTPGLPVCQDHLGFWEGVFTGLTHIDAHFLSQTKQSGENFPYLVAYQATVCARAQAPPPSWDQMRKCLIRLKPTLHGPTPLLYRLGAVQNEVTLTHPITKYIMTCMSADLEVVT
T1 sequence (P27958 1658-1711): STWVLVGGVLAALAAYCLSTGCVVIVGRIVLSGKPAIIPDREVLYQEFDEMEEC

Row | Compound | Ki [1] | EC50 [2] [nM] | CC50 at 3 days [3] [nM]
1 | Cc1cc(-c2nc(O[C@@H]3C[C@H]4C(=O)N[C@]5(C(=O)O)C[C@H]5/C=C\CCCCC[C@H](NC(=O)OC(C)(C)C)C(=O)N4C3)c3sccc3n2)n(C)n1 [Example 61, (2R,6S,12Z,13aS,14aR,16aS)-6-[(Tert-butoxycarbonyl)amino]-2-{[2-(1,3-dimethyl-1H-pyrazol-5-yl)thieno[3,2-d]pyrimidin-4-yl]oxy}-5,16-dioxo-1,2,3,6,7,8,9,10,11,13a,14,15,16,16a-tetradecahydrocyclopropa[e]pyrrolo[1,2-a][1,4]diazacyclopentadecine-14a(5H)-carboxylic acid] | 11.3 nM | 870 | 244000
2 | O=C(CC1CC1)N[C@H]1CCCCC/C=C\[C@@H]2C[C@@]2(C(=O)O)NC(=O)[C@@H]2C[C@@H](Oc3nc(-c4ccccn4)nc4sccc34)CN2C1=O [Example 31, (2R,6S,12Z,13aS,14aR,16aS)-6-[(Cyclopropylacetyl)amino]-5,16-dioxo-2-[(2-pyridin-2-ylthieno[2,3-d]pyrimidin-4-yl)oxy]-1,2,3,6,7,8,9,10,11,13a,14,15,16,16a-tetradecahydrocyclopropa[e]pyrrolo[1,2-a][1,4]diazacyclopentadecine-14a(5H)-carboxylic acid] | 39 nM | 250 | 168000
3 | O=C(CC1CC1)N[C@H]1CCCCC/C=C\[C@@H]2C[C@@]2(C(=O)O)NC(=O)[C@@H]2C[C@@H](Oc3nc(-c4ccccn4)nc4ccsc34)CN2C1=O [Example 46, (2R,6S,12Z,13aS,14aR,16aS)-6-[(Cyclopropylacetyl)amino]-5,16-dioxo-2-[(2-pyridin-2-ylthieno[3,2-d]pyrimidin-4-yl)oxy]-1,2,3,6,7,8,9,10,11,13a,14,15,16,16a-tetradecahydrocyclopropa[e]pyrrolo[1,2-a][1,4]diazacyclopentadecine-14a(5H)-carboxylic acid] | 15 nM | 92 | > 320000
4 | O=C(N[C@H]1CCCCC/C=C\[C@@H]2C[C@@]2(C(=O)O)NC(=O)[C@@H]2C[C@@H](Oc3nc(-c4ccccn4)nc4ccsc34)CN2C1=O)OC1CCCC1 [Example 41, (2R,6S,12Z,13aS,14aR,16aS)-6-{[(cyclopentyloxy)carbonyl]amino}-5,16-dioxo-2-[(2-pyridin-2-ylthieno[3,2-d]pyrimidin-4-yl)oxy]-1,2,3,6,7,8,9,10,11,13a,14,15,16,16a-tetradecahydrocyclopropa[e]pyrrolo[1,2-a][1,4]diazacyclopentadecine-14a(5H)-carboxylic acid] | 5.2 nM | 34 | 87000
5 | O=C(N[C@H]1CCCCC/C=C\[C@@H]2C[C@@]2(C(=O)O)NC(=O)[C@@H]2C[C@@H](Oc3cc(-c4ccccn4)nc4ccsc34)CN2C1=O)OC1CCC1 [Example 13, (2R,6S,12Z,13aS,14aR,16aS)-6-{[(Cyclobutyloxy)carbonyl]amino}-5,16-dioxo-2-[(5-pyridin-2-ylthieno[3,2-b]pyridin-7-yl)oxy]-1,2,3,6,7,8,9,10,11,13a,14,15,16,16a-tetradecahydrocyclopropa[e]pyrrolo[1,2-a][1,4]diazacyclopentadecine-14a(5H)-carboxylic acid] | 9 nM | 310 | 161000
6 | Cn1ccnc1-c1cc2nccc(O[C@@H]3C[C@H]4C(=O)N[C@]5(C(=O)O)C[C@H]5/C=C\CCCCC[C@H](NC(=O)CC5CC5)C(=O)N4C3)c2s1 [Example 91, (2R,6S,12Z,13aS,14aR,16aS)-6-[(Cyclopropylacetyl)amino]-2-{[2-(1-methyl-1H-imidazol-2-yl)thieno[3,2-b]pyridin-7-yl]oxy}-5,16-dioxo-1,2,3,6,7,8,9,10,11,13a,14,15,16,16a-tetradecahydrocyclopropa[e]pyrrolo[1,2-a][1,4]diazacyclopentadecine-14a(5H)-carboxylic acid] | 91 nM and 70 nM | 290 | > 320000
7 | O=C(N[C@H]1CCCCC/C=C\[C@@H]2C[C@@]2(C(=O)O)NC(=O)[C@@H]2C[C@@H](Oc3cc(-c4ccccn4)nc4ccsc34)CN2C1=O)OC1CCCC1 [Example 11, (2R,12Z,13aS,14aR,16aS)-6-{[(cyclopentyloxy)carbonyl]amino}-5,16-dioxo-2-[(5-pyridin-2-ylthieno[3,2-b]pyridin-7-yl)oxy]-1,2,3,6,7,8,9,10,11,13a,14,15,16,16a-tetradecahydrocyclopropa[e]pyrrolo[1,2-a][1,4]diazacyclopentadecine-14a(5H)-carboxylic acid] | 6.6 nM | 110 | 86000
8 | Cc1cc(-c2nc(O[C@@H]3C[C@H]4C(=O)N[C@]5(C(=O)O)C[C@H]5/C=C\CCCCC[C@H](NC(=O)OC5CCC5)C(=O)N4C3)c3sccc3n2)n(C)n1 [Example 60, (2R,6S,12Z,13aS,14aR,16aS)-6-{[(Cyclobutyloxy)carbonyl]amino}-2-{[2-(1,3-dimethyl-1H-pyrazol-5-yl)thieno[3,2-d]pyrimidin-4-yl]oxy}-5,16-dioxo-1,2,3,6,7,8,9,10,11,13a,14,15,16,16a-tetradecahydrocyclopropa[e]pyrrolo[1,2-a][1,4]diazacyclopentadecine-14a(5H)-carboxylic acid] | 6.7 nM | 700 | 222000
9 | Cc1cc(-c2nc(O[C@@H]3C[C@H]4C(=O)N[C@]5(C(=O)O)C[C@H]5/C=C\CCCCC[C@H](NC(=O)CC5CC5)C(=O)N4C3)c3sccc3n2)n(C)n1 [Example 63, (2R,6S,12Z,13aS,14aR,16aS)-6-[(cyclopropylacetyl)amino]-2-{[2-(1,3-dimethyl-1H-pyrazol-5-yl)thieno[3,2-d]pyrimidin-4-yl]oxy}-5,16-dioxo-1,2,3,6,7,8,9,10,11,13a,14,15,16,16a-tetradecahydrocyclopropa[e]pyrrolo[1,2-a][1,4]diazacyclopentadecine-14a(5H)-carboxylic acid] | 8.1 nM | 11 | > 320000
10 | O=C(CC1CC1)N[C@H]1CCCCC/C=C\[C@@H]2C[C@@]2(C(=O)O)NC(=O)[C@@H]2C[C@@H](Oc3cc(-c4ccccn4)nc4ccsc34)CN2C1=O [Example 16, (2R,6S,12Z,13aS,14aR,16aS)-6-[(Cyclopropylacetyl)amino]-5,16-dioxo-2-[(5-pyridin-2-ylthieno[3,2-b]pyridin-7-yl)oxy]-1,2,3,6,7,8,9,10,11,13a,14,15,16,16a-tetradecahydrocyclopropa[e]pyrrolo[1,2-a][1,4]diazacyclopentadecine-14a(5H)-carboxylic acid] | 11 nM | 140 | 251000
11 | Cc1cc(-c2nc(O[C@@H]3C[C@H]4C(=O)N[C@]5(C(=O)O)C[C@H]5/C=C\CCCCC[C@H](NC(=O)O[C@H]5CCOC5)C(=O)N4C3)c3sccc3n2)n(C)n1 [Example 65, (2R,6S,12Z,13aS,14aR,16aS)-2-{[2-(1,3-Dimethyl-1H-pyrazol-5-yl)thieno[3,2-d]pyrimidin-4-yl]oxy}-5,16-dioxo-6-({[(3S)-tetrahydrofuran-3-yloxy]carbonyl}amino)-1,2,3,6,7,8,9,10,11,13a,14,15,16,16a-tetradecahydrocyclopropa[e]pyrrolo[1,2-a][1,4]diazacyclopentadecine-14a(5H)-carboxylic acid] | 10.3 nM and 7.9 nM | 2600 | > 320000
